Laboratory results: patent US6136825A, “Sulfonamide compounds having 5-HT receptor activity” (Knoll Aktiengesellschaft, priority 1996, dated 2000)
Counter-ions that a name gives are not always drawn.

Columns and labels:
[1] = target: T1, D2-like dopamine receptors (Rattus norvegicus, UniProt P61169); assay: inhibition of tritiated (S)-sulpiride binding to D2-like dopamine receptors, rat striatal tissue; parameters: species or system male Charles River CD rats; settings: for Ki: 4° C., 40 minutes, pH 7.7; for inhibition at 1 µM: at 10^-6 M, read-out: % displacement of specific binding, D2-like
T1 construct: Striatal tissue from the brains of male Charles River CD rats; from tissue; host or cells: rat striatum (male Charles River CD rats), crude membrane pellet
Method: Striatal tissue from the brains of male Charles River CD rats weighing between 140-250 g were homogenised in ice-cold 50 mM Tris-HCl buffer (pH 7.7 when measured at 25° C.) and centrifuged at 40,000 g for 10 minutes. The pellet was resuspended in Tris salts buffer (50 mM Tris-HCl buffer containing 120 mM NaCl, 5 mM KCl, 2 mM CaCl2 and 1 mM MgCl2 with the addition of 6 mM ascorbic acid; pH 7.7 when measured at 25° C.), and again centrifuged at 40,000 g for 10 minutes. The final pellet was stored at -80° C. Before each test the pellet was resuspended in Tris salts buffer (equivalent to 2 mg wet weight of tissue/ml). Aliquots (720 μl; equivalent to 1.44 mg wet weight of tissue/tube) of this suspension were then added to tubes containing the ligand (40 μl; 1 nM) and Tris salts buffer (40 μl; total binding) or spiroperidol (40 μl; 10 nM; non-specific binding) or test compound (40 μl; at a single concentration of 10^-6 M or at 6 concentrations ranging from 10^-11 -10^-4 M). The ligand was tritiated (S)-sulpiride and the mixture was incubated at 4° C. for 40 minutes before the incubation was terminated by rapid filtration.
The filters were washed with ice-cold Tris-HCl buffer and dried. The filters were punched out in to vials, scintillation fluid added and were left for about 20 hours before being counted by scintillation spectrophotometry. The percentage displacement of specific binding of the tritiated ligand was calculated for the single concentration (10^-6 M) of test compound. Displacement curves were then produced over a range of concentrations for those compounds which displaced ≥50% of specific binding of the tritiated ligand at 10^-6 M. The concentration which gave a 50% inhibition of specific binding (IC50) was obtained from the curve. The inhibition coefficient Ki was then calculated using the formula [formula] in which [ligand] is the concentration of the tritiated ligand used and KD is the equilibrium dissociation constant for the ligand.

5-HT1A = target: T2, 5-HT1A (Rattus norvegicus, UniProt P19327); assay: inhibition of tritiated ligand ([3H]8-OH-DPAT) binding to 5-HT1A receptors, rat hippocampal tissue; parameters: species or system male Charles River CD rats; settings: for inhibition at 1 µM: at 10^-6 M, read-out: % displacement of specific binding, 5-HT1A; for Ki: 25° C., 30 minutes, pH 7.7
T2 construct: Hippocampal tissue from the brains of male Charles River CD rats; from tissue; host or cells: rat hippocampus (male Charles River CD rats), crude membrane pellet
T2 sequence (P19327 1-422): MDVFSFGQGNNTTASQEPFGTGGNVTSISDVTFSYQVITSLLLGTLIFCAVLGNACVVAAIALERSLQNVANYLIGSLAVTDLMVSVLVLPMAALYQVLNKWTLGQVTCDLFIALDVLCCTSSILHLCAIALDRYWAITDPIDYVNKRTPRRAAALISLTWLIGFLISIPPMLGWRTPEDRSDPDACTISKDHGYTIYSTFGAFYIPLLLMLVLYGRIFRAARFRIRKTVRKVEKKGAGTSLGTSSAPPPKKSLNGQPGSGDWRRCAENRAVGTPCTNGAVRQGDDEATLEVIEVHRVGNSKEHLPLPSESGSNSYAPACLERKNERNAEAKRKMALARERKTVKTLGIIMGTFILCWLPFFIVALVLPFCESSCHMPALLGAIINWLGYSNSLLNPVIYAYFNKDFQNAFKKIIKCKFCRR
Method: Hippocampal tissue from the brains of male Charles River CD rats weighing between 150-250 g were homogenised in ice-cold 50 mM Tris-HCl buffer (pH 7.7) when measured at 25° C., 1:40 w/v) and centrifuged at 30,000 g at 4° C. for 10 minutes. The pellet was rehomogenised in the same buffer, incubated at 37° C. for 10 minutes and centrifuged at 30,000 g at 4° C. for 10 minutes. The final pellet was resuspended in 50 mM Tris-HCl buffer (pH 7.7) containing 4 mM CaCl2, 0.1% L-ascorbic acid and 10 μM pargyline hydrochloride (equivalent to 6.25 mg wet weight of tissue/ml) and used immediately in the binding assay. Aliquots (400 μl; equivalent to 2.5 mg wet weight of tissue/tube) of this suspension were added to tubes containing the ligand (50 μl; 2 nM) and distilled water (50 μl; total binding) or 5-HT (50 μl; 10 μM; non-specific binding) or test compound (50 μl; at a single concentration of 10^-6 M or at 10 concentrations ranging from 10^-11 -10^-3 M). The ligand was [^3 H]8-hydroxy-2-(dipropylamino)tetralin ([^3 H]8-OH-DPAT) and the mixture was incubated at 25° C. for 30 minutes before the incubation was terminated by rapid filtration.
The filters were washed with ice-cold Tris-HCl buffer and dried. The filters were punched out into vials, scintillation fluid added and radioactivity determined by liquid scintillation counting. The percentage displacement of specific binding of the tritiated ligand was calculated for the single concentration (10^-6 M) of test compound. Displacement curves were then produced for those compounds which displaced ≥50% of specific binding of the tritiated ligand at 10^-6 M using a range of concentrations of the compound. The concentration which gave 50% inhibition of specific binding (IC50) was obtained from the curve. The inhibition coefficient Ki was then calculated using the formula [formula] in which [ligand] is the concentration of the tritiated ligand used and KD Is the equilibrium dissociation constant for the ligand.

T1 sequence (P61169 whole entry): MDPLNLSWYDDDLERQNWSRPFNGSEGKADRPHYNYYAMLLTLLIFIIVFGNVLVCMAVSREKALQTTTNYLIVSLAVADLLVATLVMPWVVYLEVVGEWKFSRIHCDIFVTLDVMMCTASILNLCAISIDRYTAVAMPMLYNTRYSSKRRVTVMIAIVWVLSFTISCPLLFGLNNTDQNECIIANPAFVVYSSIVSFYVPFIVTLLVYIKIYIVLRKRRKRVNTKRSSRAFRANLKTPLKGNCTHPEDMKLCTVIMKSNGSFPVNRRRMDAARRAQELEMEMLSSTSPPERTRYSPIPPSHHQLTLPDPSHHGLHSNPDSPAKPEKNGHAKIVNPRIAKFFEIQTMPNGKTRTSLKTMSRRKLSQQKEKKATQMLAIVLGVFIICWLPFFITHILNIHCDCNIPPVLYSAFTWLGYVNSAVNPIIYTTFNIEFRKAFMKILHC

With `O=S(=O)(NCC1CCN(C[C@H]2COc3ccc(Cl)cc3O2)CC1)c1c(F)c(Br)cc(F)c1Br` [Example 39, (S)-2,5-Dibromo-N-{[1-(7-chloro-1,4-benzodioxan-2-ylmethyl)-4-piperidyl]methyl}-3,6-difluorobenzenesulphonamide] the Ki [1] was 438 nM and the inhibition at 1 µM (5-HT1A) was 98%.

`Cc1c([N+](=O)[O-])cc(S(=O)(=O)NCC2CCN(C[C@H]3COc4ccc(Cl)cc4O3)CC2)cc1[N+](=O)[O-]` [Example 26, (S)-N-{[1-(7-Chloro-1,4-benzodioxan-2-ylmethyl)-4-piperidyl]methyl}-4-methyl-3,5-dinitrobenzenesulphonamide] showed an inhibition at 1 µM [1] of 87% and an inhibition at 1 µM (5-HT1A) of 88%.

`O=S(=O)(NCC1CCN(C[C@H]2COc3ccc(Cl)cc3O2)CC1)c1cc(OCC(F)(F)F)ccc1OCC(F)(F)F` [Example 16, (S)-N-{[1-(7-Chloro-1,4-benzodioxan-2-ylmethyl)-4-piperidyl]methyl}-2,5-bis(2,2,2-trifluoroethoxy)benzenesulphonamide] was tested, and the Ki [1] was 258 nM and the inhibition at 1 µM (5-HT1A) was 84%.

Compound `O=[N+]([O-])c1cccc(S(=O)(=O)NCC2CCN(C[C@H]3COc4ccc(Cl)cc4O3)CC2)c1` [Example 25, (S)-N-{[1-(7-Chloro-1,4-benzodioxan-2-ylmethyl)-4-piperidyl]methyl}-3-nitrobenzenesulphonamide] has a Ki [1] of 119 nM and an inhibition at 1 µM (5-HT1A) of 91%.

With `O=S(=O)(NCC1CCN(C[C@H]2COc3ccc(Br)cc3O2)CC1)c1ccc(F)cc1F` [Example 47, (S)-(-)-N-{[1-(7-Bromo-1,4-benzodioxan-2-ylmethyl)-4-piperidyl]methyl}-2,4-difluorobenzenesulphonamide] the Ki [1] was 48 nM and the Ki (5-HT1A) was 16 nM.

Compound `O=S(=O)(NCC1CCN(C[C@H]2COc3ccc(Cl)cc3O2)CC1)c1ccccn1` [Example 1, (S)-(-)-N-{[1-(7-chloro-1,4-benzodioxan-2-ylmethyl)-4-piperidyl]methyl}pyridine-2-sulphonamide monohydrochloride 0.6 hydrate] has a Ki [1] of 29.4 nM and a Ki (5-HT1A) of 86.8 nM.

With `O=S(=O)(NCC1CCN(C[C@H]2COc3cc4c(cc3O2)OCO4)CC1)c1cccc(Cl)c1Cl` [Example 49, (S)-(-)-2,3-Dichloro-N-{[1-(^6,^7-methylenedioxy-1,4-benzodioxan-2-ylmethyl)-4-piperidyl]methyl}benzenesulphonamide] the inhibition at 1 µM [1] was 89% and the inhibition at 1 µM (5-HT1A) was 77%.

`O=[N+]([O-])c1ccccc1S(=O)(=O)NCC1CCN(C[C@H]2COc3ccc(Cl)cc3O2)CC1` [Example 37, (S)-N-{[1-(7-Chloro-1,4-benzodioxan-2-ylmethyl)-4-piperidyl]methyl}-2-nitro-benzenesulphonamide] gave a Ki [1] of 85 nM and an inhibition at 1 µM (5-HT1A) of 87%.

`O=S(=O)(NCC1CCN(C[C@H]2COc3ccc(Br)cc3O2)CC1)c1cccc(Cl)c1Cl` [Example 13, (S)-(-)-N-{[1-(7-bromo-1,4-benzodioxan-2-ylmethyl)-4-piperidyl]methyl}-2,3-dichlorobenzensulphonamide] showed a Ki [1] of 102 nM and a Ki (5-HT1A) of 20 nM.

Compound `O=S(=O)(c1ccccn1)N1CCC(CNC[C@H]2COc3ccc(Cl)cc3O2)CC1` [Example 2, (S)-(-)-4-[N-(7-chloro-1,4-benzodioxan-2-ylmethyl)aminomethyl]-1-(2-pyridinesulphonyl)piperidine 0.8 hydrate] has a Ki [1] of 27.9 nM and a Ki (5-HT1A) of 11.4 nM.

With `CC(=O)Nc1ccc(S(=O)(=O)NCC2CCN(C[C@H]3COc4ccc(Br)cc4O3)CC2)cc1` [Example 44, (S)-(-)-4-Acetamido-N-{[1-(7-bromo-1,4-benzodioxan-2-ylmethyl}-4-piperidyl]methyl)benzenesulphonamide] the Ki [1] was 23 nM and the Ki (5-HT1A) was 14 nM.

Work on `O=S(=O)(NCC1CCN(C[C@H]2COc3ccc(Br)cc3O2)CC1)c1ccccc1Cl` [Example 46, (S)-(-)-N-{[1-(7-Bromo-1,4-benzodioxan-2-ylmethyl)-4-piperidyl]methyl}-2-chlorobenzenesulphonamide] yielded an inhibition at 1 µM [1] of 106% and an inhibition at 1 µM (5-HT1A) of 96%.

`O=S(=O)(NCC1CCN(C[C@H]2COc3ccc(Cl)cc3O2)CC1)c1cccc(Cl)c1Cl` [Example 43, (S)-(-)-2,3-Dichloro-N-{[1-(7-chloro-1,4-benzodioxan-2-ylmethyl)-4-piperidyl]methyl}benzenesulphonamide] was tested, and the Ki [1] was 73 nM and the Ki (5-HT1A) was 1.5 nM.

In the case of `CC(=O)Nc1ccc(S(=O)(=O)NCC2CCN(C[C@H]3COc4ccc(Cl)cc4O3)CC2)cc1` [Example 8, (S)-(-)-4-acetamido-N-{[1-(7-chloro-1,4-benzodioxan-2-ylmethyl)-4-piperidyl]methyl}benzenesulphonamide], the Ki [1] is reported as 37.2 nM and the Ki (5-HT1A) is reported as 45 nM.

In the case of `O=S(=O)(NCC1CCN(C[C@H]2COc3ccc(Cl)cc3O2)CC1)c1ccccc1F` [Example 40, (S)-(-)-N-{[1-(7-Chloro-1,4-benzodioxan-2-ylmethyl)-4-piperidyl]methyl}-2-fluorobenzenesulphonamide], the inhibition at 1 µM [1] is reported as 107% and the inhibition at 1 µM (5-HT1A) is reported as 93%.

With `COc1ccc(S(=O)(=O)NCC2CCN(C[C@H]3COc4ccc(Cl)cc4O3)CC2)cc1` [Example 9, (S)-(-)-N-{[1-(7-chloro-1,4-benzodioxan-2-ylmethyl)-4-piperidyl]-methyl}-4-methoxybenzenesulphonamide] the Ki [1] was 96.4 nM and the Ki (5-HT1A) was 42 nM.

Compound `O=S(=O)(NCC1CCN(C[C@H]2COc3ccc(C(F)(F)F)cc3O2)CC1)c1cccc(Cl)c1Cl` [Example 14, (S)-(-)-2,3-dichloro-N-{[1-(7-trifluoromethyl-1,4-benzodioxan-2-ylmethyl)-4-piperidyl]methyl}benzenesulphonamide] has a Ki [1] of 111 nM and a Ki (5-HT1A) of 25 nM.

Compound `O=S(=O)(NCC1CCN(C[C@H]2COc3ccc(Br)cc3O2)CC1)c1ccccc1F` [Example 45, (S)-(-)-N-{[1-(7-Bromo-1,4-benzodioxan-2-ylmethyl)-4-piperidyl]methyl}-2-fluorobenzenesulphonamide] has an inhibition at 1 µM [1] of 109% and an inhibition at 1 µM (5-HT1A) of 97%.

`O=S(=O)(NCC1CCN(C[C@H]2COc3ccc(Br)cc3O2)CC1)c1ccc(F)c(Cl)c1` [Example 48, (S)-(-)-3-Chloro-N-{[1-(7-bromo-1,4-benzodioxan-2-ylmethyl)-4-piperidyl]methyl}-4-fluorobenzenesulphonamide] gave an inhibition at 1 µM [1] of 103% and an inhibition at 1 µM (5-HT1A) of 88%.

In the case of `O=S(=O)(NCC1CCN(C[C@H]2COc3ccc(Cl)cc3O2)CC1)c1cc(Br)ccc1Br` [Example 36, (S)-2,5-Dibromo-N-{[1-(7-Chloro-1,4-benzodioxan-2-ylmethyl)-4-piperidyl]methyl}-benzenesulphonamide], the Ki [1] is reported as 487 nM and the inhibition at 1 µM (5-HT1A) is reported as 68%.
